{"source": "ChEMBL document CHEMBL1201862", "about": "“PubChem BioAssay data set” (2004)", "key": {"[1]": {"assay": "reduction of Shn3 3'UTR-driven luciferase in osteoblasts – cell-based, Clone20 osteoblasts, firefly luciferase, cherry-picked, dose response (AID 624132)", "type": "functional"}, "[2]": {"assay": "non-specific 3'UTR reporter inhibition in Clone20-Shn3RL – cell-based, Renilla luciferase, cherry-picked, counter-screen for Shn3 inhibitor project, dose response (AID 624133)", "type": "functional"}, "Protein Wnt-3a": {"target": "Protein Wnt-3a (Mus musculus, UniProt P27467)", "sequence (P27467 whole entry)": "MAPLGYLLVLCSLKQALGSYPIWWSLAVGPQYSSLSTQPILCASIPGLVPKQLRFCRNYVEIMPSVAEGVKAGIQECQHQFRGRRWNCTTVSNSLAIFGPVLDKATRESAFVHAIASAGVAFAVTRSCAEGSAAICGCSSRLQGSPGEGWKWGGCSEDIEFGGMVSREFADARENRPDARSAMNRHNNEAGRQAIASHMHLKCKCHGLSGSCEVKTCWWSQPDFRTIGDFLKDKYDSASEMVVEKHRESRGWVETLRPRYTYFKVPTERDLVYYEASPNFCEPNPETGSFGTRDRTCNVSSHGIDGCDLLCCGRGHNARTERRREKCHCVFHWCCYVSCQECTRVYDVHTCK", "assay": "antagonism of Wnt3a pathway luciferase reporter – Wnt-LIGHT cells, luminescence, selectivity assay for Gli-SUFU antagonist project, dose response (AID 651570);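 also: Wnt-LIGHT reporter cells stimulated with conditioned medium from Wnt3a-producing cells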", "type": "functional", "conditions": "read-out: IC50_Mean"}, "[3]": {"target": "T1, Replicative DNA helicase DnaB (Mycobacterium tuberculosis, UniProt P9WMR3)", "T1 sequence (P9WMR3 whole entry)": "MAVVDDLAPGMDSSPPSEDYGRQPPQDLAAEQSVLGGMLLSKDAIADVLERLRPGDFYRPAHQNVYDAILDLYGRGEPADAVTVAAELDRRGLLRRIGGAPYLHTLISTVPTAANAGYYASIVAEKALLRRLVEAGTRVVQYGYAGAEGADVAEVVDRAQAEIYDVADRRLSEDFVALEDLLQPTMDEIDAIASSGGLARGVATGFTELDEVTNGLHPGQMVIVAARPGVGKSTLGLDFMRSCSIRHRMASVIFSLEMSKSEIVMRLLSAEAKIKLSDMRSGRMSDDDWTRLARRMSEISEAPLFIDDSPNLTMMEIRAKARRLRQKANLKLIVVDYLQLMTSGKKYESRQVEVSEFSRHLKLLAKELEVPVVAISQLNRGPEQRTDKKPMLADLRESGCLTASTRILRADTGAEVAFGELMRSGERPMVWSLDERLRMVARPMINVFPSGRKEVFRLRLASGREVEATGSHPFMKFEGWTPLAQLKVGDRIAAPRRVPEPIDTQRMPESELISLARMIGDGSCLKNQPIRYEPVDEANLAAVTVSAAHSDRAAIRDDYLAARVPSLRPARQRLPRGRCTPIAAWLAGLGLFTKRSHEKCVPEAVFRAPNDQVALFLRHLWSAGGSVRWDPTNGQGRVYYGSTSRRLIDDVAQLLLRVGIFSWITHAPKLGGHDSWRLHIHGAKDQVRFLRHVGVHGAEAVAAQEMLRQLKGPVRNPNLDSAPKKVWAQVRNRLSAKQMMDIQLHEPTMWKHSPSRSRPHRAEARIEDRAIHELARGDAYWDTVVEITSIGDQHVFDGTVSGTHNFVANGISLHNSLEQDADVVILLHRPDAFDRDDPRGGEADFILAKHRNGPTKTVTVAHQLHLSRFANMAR", "assay": "DnaB intein splicing inhibitors, dose response, biochemical, cell-free fluorescence (AID 449749)", "type": "functional"}, "Protein RecA": {"target": "T2, Protein RecA (Mycobacterium tuberculosis, UniProt P9WHJ3)", "T2 sequence (P9WHJ3 whole entry)": "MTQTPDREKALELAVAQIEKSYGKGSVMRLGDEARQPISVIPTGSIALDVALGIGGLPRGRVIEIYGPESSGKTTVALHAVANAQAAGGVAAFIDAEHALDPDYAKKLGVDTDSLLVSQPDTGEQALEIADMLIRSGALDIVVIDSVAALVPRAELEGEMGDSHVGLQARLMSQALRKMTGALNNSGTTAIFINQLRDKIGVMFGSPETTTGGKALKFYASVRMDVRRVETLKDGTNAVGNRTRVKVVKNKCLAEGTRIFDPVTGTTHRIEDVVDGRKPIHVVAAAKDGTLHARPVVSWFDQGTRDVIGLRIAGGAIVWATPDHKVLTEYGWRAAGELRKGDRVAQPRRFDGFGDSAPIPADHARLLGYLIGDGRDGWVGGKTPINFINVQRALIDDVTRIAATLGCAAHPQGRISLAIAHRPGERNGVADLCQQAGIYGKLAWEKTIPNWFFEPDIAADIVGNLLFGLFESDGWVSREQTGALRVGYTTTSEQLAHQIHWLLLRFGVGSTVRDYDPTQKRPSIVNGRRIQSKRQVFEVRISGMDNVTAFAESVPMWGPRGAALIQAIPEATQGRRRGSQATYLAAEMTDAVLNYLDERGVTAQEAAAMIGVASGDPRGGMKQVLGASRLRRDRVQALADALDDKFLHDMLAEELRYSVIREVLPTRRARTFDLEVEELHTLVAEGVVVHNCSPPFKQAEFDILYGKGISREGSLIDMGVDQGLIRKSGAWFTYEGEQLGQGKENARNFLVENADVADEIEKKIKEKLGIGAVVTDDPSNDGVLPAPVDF", "assay": "Fluorescence Cell-Free Homogeneous Dose Retest to Identify Inhibitors of RecA-Intein Splicing Activity. [Related pubchem assays (depositor defined):AID2097, AID2223, AID489010, AID492950]", "type": "functional"}, "[4]": {"assay": "A Cell Based Secondary Assay to Explore Cytotoxicity in THP-1 Cells of Compounds that Modulate Mycobacterium tuberculosis in Media Containing Glycerol versus Media without Glycerol (2).", "type": "functional"}, "[5]": {"assay": "Vero cell cytotoxicity, cytotoxicity control for M. tuberculosis inhibitor project, purified and synthesized samples, set 3 (AID 504684)", "type": "functional", "conditions": "[…]"}, "[6]": {"target": "T3, Corticotropin-releasing factor receptor 2/Corticotropin-releasing factor-binding protein (Homo sapiens, UniProt P24387+Q13324)", "T3 sequence (Q13324 whole entry)": "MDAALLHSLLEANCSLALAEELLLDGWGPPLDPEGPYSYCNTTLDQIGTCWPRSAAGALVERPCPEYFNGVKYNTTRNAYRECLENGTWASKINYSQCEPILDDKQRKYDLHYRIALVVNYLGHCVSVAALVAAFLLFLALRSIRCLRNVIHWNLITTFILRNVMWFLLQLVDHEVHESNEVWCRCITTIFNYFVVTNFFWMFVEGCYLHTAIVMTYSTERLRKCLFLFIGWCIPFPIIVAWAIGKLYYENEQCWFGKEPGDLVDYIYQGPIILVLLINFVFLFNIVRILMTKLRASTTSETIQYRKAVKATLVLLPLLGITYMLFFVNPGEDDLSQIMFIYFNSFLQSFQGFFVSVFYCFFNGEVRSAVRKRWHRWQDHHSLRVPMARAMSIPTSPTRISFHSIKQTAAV", "T3 sequence (P24387 whole entry)": "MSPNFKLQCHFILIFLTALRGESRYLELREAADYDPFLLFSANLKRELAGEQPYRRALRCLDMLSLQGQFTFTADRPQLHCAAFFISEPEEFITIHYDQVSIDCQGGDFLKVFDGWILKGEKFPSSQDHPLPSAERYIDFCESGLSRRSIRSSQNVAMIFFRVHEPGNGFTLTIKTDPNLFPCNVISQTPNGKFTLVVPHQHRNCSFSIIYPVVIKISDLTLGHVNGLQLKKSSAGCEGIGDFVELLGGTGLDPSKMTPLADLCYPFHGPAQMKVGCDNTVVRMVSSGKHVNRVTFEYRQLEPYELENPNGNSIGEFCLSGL", "assay": "Dose Response confirmation of uHTS hits for small molecule antagonists of the CRF-binding protein and CRF-R2 receptor complex.", "type": "functional", "conditions": "read-out: IC50_Mean"}, "[7]": {"target": "T3, Corticotropin-releasing factor receptor 2/Corticotropin-releasing factor-binding protein", "assay": "activators of CRF receptor 2 with binding protein – uHTS hits, confirmation (AID 602473)", "type": "functional", "conditions": "read-out: EC50_Mean"}, "[8]": {"assay": "blockers of CRF-binding protein–CRF-R2 complex – cell-based, uHTS hits, 384-well, dose response (AID 651639)", "type": "functional, Homo sapiens", "conditions": "read-out: IC50_Mean"}}, "note": "Activity calls are given as the source filed them.", "data": [{"smiles": "C=CCOc1nc2c(c(=O)n(C)c(=O)n2C)n1Cc1ccc(Cl)cc1", "values": [{"measurement": "AC50", "setting": "[1]", "value": "1.03 µM (active)"}, {"measurement": "AC50", "setting": "[2]", "value": "2.02 µM (active)"}, {"measurement": "IC50", "setting": "Protein Wnt-3a", "value": "1.88 µM (active)"}]}, {"smiles": "O=C1C(Br)=Cc2cccc3cccc1c23", "values": [{"measurement": "AC50", "setting": "[3]", "value": "> 380 µM (inactive)"}, {"measurement": "EC50", "setting": "Protein RecA", "value": "0.581 µM (active)"}, {"measurement": "CC50", "setting": "[4]", "value": "> 100 µM (active)"}, {"measurement": "CC50", "setting": "[5]", "value": "74.6 µM (active)"}]}, {"smiles": "O=C(NC(=S)Nc1c(Cl)ccc2nsnc12)c1ccccc1F", "values": [{"measurement": "IC50", "setting": "[6]", "value": "2.88 µM (active)"}, {"measurement": "EC50", "setting": "[7]", "value": "> 53 µM (inactive)"}, {"measurement": "IC50", "setting": "[8]", "value": "> 20 µM (inactive)"}]}]}
